Experimental data published in patent US11691951B2 (Curtana Pharmaceuticals, Inc., priority 2015, dated 2023).

Test system: GBM8 cells (human glioblastoma neurosphere cell culture)
Experiment: GBM8 viability assay (Cell Titer Glo luminescence, 3 days)
Type: cell-based
Details: 72 h, 3 days incubation
Description: Example 283: GBM4 and GBM8 Viability Assay
Cell culture medium was prepared from a NSA proliferation kit (Neurocult) and NeuroCult supplements (Stemcell Tech Cat. #05751) and treated with 20 μL of 10 μg/mL rh EGF, 10 μL of 10 μg/mL rh bFGF and 10 μL of 0.2% Heparin. In this medium, human glioblastoma cells were cultured in ultra-low attachment tissue culture flasks until 1×10^6 cells ml was achieved (GBM4 and GBM8 are distinct neurosphere cell cultures derived from these human patient tissues). GBM4 and GBM8 cells were dissociated and 10 mL of media containing 4000 human glioblastoma cells per 90 uL were transferred to an ultra-low binding 96-well plate and incubated at 37° C. overnight. On the following day, 10 μL of a 1% DMSO solution of test compound in assay medium was added to wells containing the cell suspension and the mixture incubated at 37° C. for 3 days. At this time, the plate was removed from the incubator and allowed to reach room temperature. After about 30 minutes, 50 μL of Cell Titer Glo solution was added to each well and the plate shaken for 1 minute at low speed. After 10 minutes luminescence was recorded using a Tecan Safire2 reader.
Reduction in luminescence compared to DMSO only control wells was used to determine the percentage inhibition of cell growth. IC50s were calculated using the % inhibition of luminescence for serial dilutions of compounds fitted to a 4-parameter fit within the Prism (San Diego) curve fitting program.

| IC50 | Structure (SMILES) |
| --- | --- |
| < 1 µM | Cc1cc(NCCCN(C)C)nc(NC(=O)Nc2ccc(OC(F)(F)F)cc2)n1 [Compound 85, 1-(4-((3-(dimethylamino)propyl)amino)-6-methylpyrimidin-2-yl)-3-(4-(trifluoromethoxy)phenyl)urea] |
| < 1 µM | Cc1cc(NCCCO)nc(NC(=O)Nc2ccc(OC(F)(F)F)cc2)n1 [Compound 86, 1-(4-((3-hydroxypropyl)amino)-6-methylpyrimidin-2-yl)-3-(4-(trifluoromethoxy)phenyl)urea] |
| < 1 µM | Cc1cc(NCCN)nc(NC(=O)Nc2ccc(OC(F)(F)F)cc2)n1 [Compound 87, 1-(4-((2-aminoethyl)amino)-6-methylpyrimidin-2-yl)-3-(4-(trifluoromethoxy)phenyl)urea] |
| < 1 µM | Cc1cc(NCCN(C)C)nc(NC(=O)Nc2ccc(OC(F)(F)F)cc2)n1 [Compound 88] |
| < 1 µM | Cc1cc(NCCCN)nc(NC(=O)Nc2ccc(OC(F)(F)F)cc2)n1 [Compound 89] |
| < 1 µM | CCNc1cc(C)nc(NC(=O)Nc2ccc(OC(F)(F)F)cc2)n1 [Compound 90] |
| < 1 µM | CCCNc1cc(C)nc(NC(=O)Nc2ccc(OC(F)(F)F)cc2)n1 [Compound 91] |
| < 1 µM | CNCCNc1cc(C)nc(NC(=O)Nc2ccc(OC(F)(F)F)cc2)n1 [Compound 98, 1-(4-methyl-6-((2-(methylamino)ethyl)amino)pyrimidin-2-yl)-3-(4-(trifluoromethoxy)phenyl)urea] |
| < 1 µM | CNCCCNc1cc(C)nc(NC(=O)Nc2ccc(OC(F)(F)F)cc2)n1 [Compound 99, 1-[4-Methyl-6-(3-methylamino-propylamino)-pyrimidin-2-yl]-3-(4-trifluoromethoxy-phenyl)-urea] |
| < 1 µM | Cc1cc(NCCCN(C)C)nc(NC(=O)Nc2ccc(F)c(C(F)(F)F)c2)n1 [Compound 101, 3-(dimethylamino)-1-(2-{3-[4-fluoro-3-(trifluoromethyl)phenyl]ureido}-6-methyl-4-pyrimidinylamino)propane] |
| < 1 µM | Cc1cc(NCCCCN(C)C)nc(NC(=O)Nc2ccc(F)c(C(F)(F)F)c2)n1 [Compound 104] |
| < 1 µM | COc1ccc(NC(=O)Nc2nc(C)cc(NCCCN(C)C)n2)cc1 [Compound 125] |
| < 1 µM | COc1ccc(NC(=O)Nc2nc(C)cc(NCCCCO)n2)cc1 [Compound 126] |
| < 1 µM | COc1ccc(NC(=O)Nc2nc(C)cc(NCCN)n2)cc1 [Compound 127] |
| < 1 µM | CCCNc1cc(C)nc(NC(=O)Nc2ccc(OC)cc2)n1 [Compound 128] |
| < 1 µM | CCCCNc1cc(C)nc(NC(=O)Nc2ccc(OC)cc2)n1 [Compound 129] |
| < 1 µM | COc1ccc(NC(=O)Nc2nc(C)cc(NCCO)n2)cc1 [Compound 130] |
| < 1 µM | COc1ccc(NC(=O)Nc2nc(C)cc(NCCCN)n2)cc1 [Compound 131] |
| < 1 µM | COc1ccc(NC(=O)Nc2nc(C)cc(NCCOCCO)n2)cc1 [Compound 132] |
| < 1 µM | COc1ccc(NC(=O)Nc2nc(C)cc(NCC(C)O)n2)cc1 (stereo not shown) [Compound 133] |
| 1 to 10 µM | COc1ccc(NC(=O)Nc2nc(C)cc(NCCc3ccccn3)n2)cc1 [Compound 134] |
| < 1 µM | COc1ccc(NC(=O)Nc2nc(C)cc(NCC(O)CO)n2)cc1 (stereo not shown) [Compound 135] |
| < 1 µM | COc1ccc(NC(=O)Nc2nc(C)cc(NCCCCN)n2)cc1 [Compound 137] |
| < 1 µM | COc1ccc(NC(=O)Nc2nc(C)cc(NCCN(C)C)n2)cc1 [Compound 138] |
| < 1 µM | CCNc1cc(C)nc(NC(=O)Nc2ccc(OC)cc2)n1 [Compound 139] |
| 1 to 10 µM | COc1cccc(NC(=O)Nc2nc(C)cc(NCCCN(C)C)n2)c1 [Compound 141] |
| 1 to 10 µM | COc1cccc(NC(=O)Nc2nc(C)cc(NCCCCN)n2)c1 [Compound 142] |
| 1 to 10 µM | COc1cccc(NC(=O)Nc2nc(C)cc(NCCCN)n2)c1 [Compound 143] |

The remaining lines, values behind:

| Structure (SMILES) | IC50 |
| --- | --- |
| CNCCNc1cc(C)nc(NC(=O)Nc2ccccc2)n1 [Compound 82, 1-(4-methyl-6-((2-(methylamino)ethyl)amino)pyrimidin-2-yl)-3-phenylurea] | 1 to 10 µM |
| CNCCCNc1cc(C)nc(NC(=O)Nc2ccccc2)n1 [Compound 83, 1-(4-methyl-6-((3-(methylamino)propyl)amino)pyrimidin-2-yl)-3-phenylurea] | 1 to 10 µM |
| COC(=O)CCNc1cc(C)nc(NC(=O)Nc2ccc(OC(F)(F)F)cc2)n1 [Compound 92] | < 1 µM |
| Cc1cc(NCCC(N)=O)nc(NC(=O)Nc2ccc(OC(F)(F)F)cc2)n1 [Compound 93] | < 1 µM |
| Cc1cc(NCC(F)(F)CO)nc(NC(=O)Nc2ccc(OC(F)(F)F)cc2)n1 [Compound 94] | < 1 µM |
| Cc1cc(NCC(C)O)nc(NC(=O)Nc2ccc(OC(F)(F)F)cc2)n1 (stereo not shown) [Compound 95] | < 1 µM |
| Cc1cc(NCC(O)CO)nc(NC(=O)Nc2ccc(OC(F)(F)F)cc2)n1 (stereo not shown) [Compound 96] | < 1 µM |
| Cc1cc(NCCCO)nc(NC(=O)Nc2ccc(F)c(C(F)(F)F)c2)n1 [Compound 102, 1-(4-fluoro-3-(trifluoromethyl)phenyl)-3-(4-((3-hydroxypropyl)amino)-6-methylpyrimidin-2-yl)urea] | < 1 µM |
| Cc1cc(NCCN(C)C)nc(NC(=O)Nc2ccc(F)c(C(F)(F)F)c2)n1 [Compound 103, 1-(4-fluoro-3-(trifluoromethyl)phenyl)-3-(4-((2-(dimethylamino)ethyl)amino)-6-methylpyrimidin-2-yl)urea] | < 1 µM |
| Cc1cc(NCCO)nc(NC(=O)Nc2ccc(F)c(C(F)(F)F)c2)n1 [Compound 105] | < 1 µM |
| Cc1cc(NCCCCO)nc(NC(=O)Nc2ccc(F)c(C(F)(F)F)c2)n1 [Compound 106] | < 1 µM |
| Cc1cc(NCCOCCO)nc(NC(=O)Nc2ccc(F)c(C(F)(F)F)c2)n1 [Compound 107] | < 1 µM |
| Cc1cc(NCC(O)CO)nc(NC(=O)Nc2ccc(F)c(C(F)(F)F)c2)n1 (stereo not shown) [Compound 108] | < 1 µM |
| Cc1cc(NCCN)nc(NC(=O)Nc2ccc(F)c(C(F)(F)F)c2)n1 [Compound 110] | < 1 µM |
| Cc1cc(NCCCN)nc(NC(=O)Nc2ccc(F)c(C(F)(F)F)c2)n1 [Compound 111] | < 1 µM |
| Cc1cc(NCCCCN)nc(NC(=O)Nc2ccc(F)c(C(F)(F)F)c2)n1 [Compound 112] | < 1 µM |
| CNCCCN(C)c1cc(C)nc(NC(=O)Nc2ccc(F)c(C(F)(F)F)c2)n1 [Compound 113] | 1 to 10 µM |
| Cc1cc(NCCCc2cnc[nH]2)nc(NC(=O)Nc2ccc(F)c(C(F)(F)F)c2)n1 [Compound 115] | < 1 µM |
| Cc1cc(NCCC(N)=O)nc(NC(=O)Nc2ccc(F)c(C(F)(F)F)c2)n1 [Compound 116] | < 1 µM |
| CCNc1cc(C)nc(NC(=O)Nc2ccc(F)c(C(F)(F)F)c2)n1 [Compound 117] | < 1 µM |
| CNCCNc1cc(C)nc(NC(=O)Nc2ccc(F)c(C(F)(F)F)c2)n1 [Compound 120, 1-(4-fluoro-3-(trifluoromethyl)phenyl)-3-(4-methyl-6-((2-(methylamino)ethyl)amino)pyrimidin-2-yl)urea] | < 1 µM |
| CNCCCNc1cc(C)nc(NC(=O)Nc2ccc(F)c(C(F)(F)F)c2)n1 [Compound 121] | < 1 µM |
| Cc1cc(NCC2CCCNC2)nc(NC(=O)Nc2ccc(F)c(C(F)(F)F)c2)n1 (stereo not shown) [Compound 122] | < 1 µM |
| Cc1cc(NC2CCNC2)nc(NC(=O)Nc2ccc(F)c(C(F)(F)F)c2)n1 (stereo not shown) [Compound 123] | < 1 µM |
